From patent US12728121B2, “Compositions and methods for treating idiopathic pulmonary fibrosis” (Seyltx, Inc., priority 2019, dated 2026)

Legend:
Format in all cases: in vivo, Mouse/C57BL/6
[1] = Bleomycin (BLM)-induced lung fibrosis in mice: body weight over 21 days; details: for Percent Change in Body Weight / Body Weight: doses as Table 1; for Body Weight: group mean
Method: (§1) The mouse species or strain was Mouse/C57BL/6, the mice being 8-10 week old males. Nine groups of 10 mice each were obtained from Charles River Laboratories. Each group was randomized based on body weight. Bleomycin (BLM) was obtained from Euroasias.
(§2) The mice were anesthetized with isoflurane/O2 mixture. Bleomycin (BLM) was then administered to the mice intratracheally (PennCentury)—single bolus, at 2.5 U/kg body weight in 50 μl sterile saline.
(§3) Seven days after the bleomycin is administered, and fibroblasts have generally proliferated, six of the nine groups of IT bleomycin challenged mice were be dosed orally (p.o.) once a day with Bromantane, Ifenoprodil, Radiprodil, Bemithyl, Dexamethasone, or Repirinast at specified amounts per kg of body weight (mg/kg) daily for 14 consecutive days. The amounts are set out in Table 1 below. The vehicle used was 0.5% carboxymethyl cellulose (CMC). Prifenidone was also prepared in 0.5% CMC and administrated orally once a day to one of the nine IT bleomycin challenged mice groups beginning for 14 consecutive days. Vehicle and no-BLM control groups received 0.5% CMC orally for 14 consecutive days.
Body Weight: The body weights were measured over 21 days using a laboratory balance.

[2] = system: BLM-induced fibrosis; experiment: Bleomycin (BLM)-induced lung fibrosis in mice: Gomori's Trichrome score of lung sections
Method: as §1, §2, §3
On day 21 of the study, 4 hours after the last dose, the mice were sacrificed and plasma was collected and frozen for cytokine analysis (testing for IL-6, IL-12, TGFβ, IL-13 proteins, or fibrosis markers). Bronchoalveolar lavage fluid (BALF) was collected and frozen for optional cytokine analyses and cell counts pending the initial data. The lungs were then excised, weighed and fixed in formalin. Gomori's Trichrome stain, a histological stain, was used to determine collagen content.
Trichrome Score: A trichrome score measures the level of scarring to the lungs caused by the disease. The greater the trichrome score, the greater the scarring.
Formalin fixed lung samples were submitted to affiliated histopathology laboratory for histopathological analysis subjected Gomori's Trichrome stain, a histological stain, which was used to determine collagen content.
Each lung was divided into ten sections. All ten sections were stained and evaluated. A board certified veterinarian pathologist assessed the presence of lung fibrosis and severity score—The expression of collagen (associated with fibrosis) is determined from the ratio of the stained area versus the total area of the lung section.

[3] = system: BLM-induced fibrosis; experiment: Bleomycin (BLM)-induced lung fibrosis in mice: mortality rate over 21 days; details: doses as Table 1
Method: as §1, §2, §3
Mortality Rate: the mortality rate in each group was also observed over 21 days.

[4] = doses as Table 1, order: Dexamethasone and Repirinast, followed by Ifenprodil and Radiprodil

Structure (SMILES): Cc1ccc2c([nH]c(=O)c3c(=O)cc(C(=O)OCCC(C)C)oc32)c1C [Repirinast, Isopentyl 7,8-dimethyl-4,5-dioxo-5,6-dihydro-4H-pyrano[3,2-c]quinoline-2-carboxylate]
- Percent Change in Body Weight ([1]; 7-Nov): 0.0%
- Body Weight ([1]; 7-Nov): 23.5 g
- Percent Change in Body Weight ([1]; 8-Nov): 0.2%
- Body Weight ([1]; 8-Nov): 23.7 g
- Percent Change in Body Weight ([1]; 9-Nov): −0.3%
- Body Weight ([1]; 9-Nov): 23.2 g
- Percent Change in Body Weight ([1]; 12-Nov): −2.0%
- Body Weight ([1]; 12-Nov): 21.5 g
- Percent Change in Body Weight ([1]; 14-Nov): −1.8%
- Body Weight ([1]; 14-Nov): 21.8 g
- Percent Change in Body Weight ([1]; 16-Nov): −2.5%
- Body Weight ([1]; 16-Nov): 21.1 g
- Percent Change in Body Weight ([1]; 20-Nov): −2.2%
- Body Weight ([1]; 20-Nov): 21.4 g
- Percent Change in Body Weight ([1]; 22-Nov): −1.3%
- Body Weight ([1]; 22-Nov): 22.3 g
- Percent Change in Body Weight ([1]; 26-Nov): −1.6%
- Body Weight ([1]; 26-Nov): 21.9 g
- Percent Change in Body Weight ([1]; 28-Nov): −1.3%
- Body Weight ([1]; 28-Nov): 22.3 g
- changes in body weight as compared to the BLM-vehicle group (in words) ([1]; doses as Table 1, p.o. once daily): No significant differences
- Trichrome score (average) ([2]; day 21, BLM 2.5 U/kg intratracheal, p.o. once daily 14 days from day 7, mg/kg: Pirfenidone 300, Bromantane 20, Ifenoprodil 30, Radiprodil 30, Bemithyl 200, Dexamethasone 0.25, Repirinast 90, Normal 1.00, Vehicle 4.59): 3.16
- Trichrome score response versus BLM-vehicle group (in words) [2, 4]: response was better
- percent reduction in lung fibrosis in comparison to the BLM-vehicle group (in words) [2, 4]: higher
- % reduction in fibrosis ([2]; from Trichrome scores relative to vehicle and normal groups, day 21, doses as Table 1, p.o. once daily 14 days): 39.8%
- improvement in lung fibrosis, loss of body weight, Trichrome score and mortality as compared to BLM-vehicle (conclusion, in words) ([2]; oral administration, Dexamethasone 0.25, Repirinast 90, Ifenprodil 30, Radiprodil 30 mg/kg): showed improvement
- Fatality Number ([3]; deaths/mice per group over 21 days, Vehicle 2/10): 1/10
- percent survival (in words) ([3]; order: Dexamethasone and Repirinast, followed by Ifenprodil and Radiprodil): higher
- Percent Fatality ([3]; over 21 days, Vehicle 20%): 10%
